In US20260209249A1, “NOVEL TRICYCLIC COMPOUND AS KRAS G12D INHIBITOR, AND USE THEREOF” (SK Biopharmaceuticals Co., priority 2022, published 2026):

Legend:
[1] = biological target: T1, GDP-KRAS G12D mutant protein (Homo sapiens, UniProt P01116, G12D); assay: Differential scanning fluorimetry (DSF) binding affinity to GDP-KRAS G12D mutant protein; settings: DSF thermal shift, 10 μM compound, 4 μg KRAS protein
T1 construct: purchased Daegu Gyeongbuk Medical Innovation Foundation (DGMIF), made to order
Protocol: (§1) Test Example 1: Measurement of Binding Affinity to KRAS G12D Mutant Protein The binding affinities of the compounds according to one embodiment of the present application to the KRAS G12D mutant protein were evaluated using differential scanning fluorimetry (DSF). Differential scanning fluorimetry (DSF) is a method used to study the stability of a protein upon binding to a compound. The experiment can be performed using a real-time PCR (RT-PCR) instrument, and is commonly employed as a screening technique for small-molecule compounds targeting specific proteins. As the temperature increases, folded proteins begin to unfold, during which a hydrophobic dye such as SYPRO Orange binds to the exposed hydrophobic regions of the protein, resulting in a measurable increase in fluorescence intensity (maximum absorption at 470 nm and maximum emission at 570 nm). Protein-compound binding is determined by the difference in the melting temperature (Tm) of the protein in the presence of the compound compared to the Tm in the absence of the compound, expressed as ΔTm. The binding affinity to the KRAS G12D mutant protein was measured using the Protein Thermal Shift Dye kit (#4461146, Applied Biosystems). The GDP-KRAS G12D mutant protein and GppNHp-KRAS G12D mutant protein used in the experiment were recombinant proteins synthesized by the Daegu Gyeongbuk Medical Innovation Foundation (DGMIF) upon request. The analysis of binding between the compound and the KRAS G12D mutant protein was performed according to the following reaction recipe: each test sample contained 4 μg of KRAS protein, 10 μM of the compound, and 2×SYPRO Orange dye. For the GDP-KRAS G12D protein samples, the buffer provided with the Protein Thermal Shift Dye kit was used, while for the GppNHp-KRAS G12D protein samples, 50 mM HEPES (pH 7.5) buffer was used. For the protein-compound binding reaction, the compound was added to the KRAS G12D mutant protein and reacted at room temperature for 30 minutes, followed by the addition of 2×SYPRO Orange dye. The temperature was increased to 25° C.-99° C. (0.05° C./s) using QuantStudiol RT-PCR instrument (Applied Biosystems), and fluorescence was measured using a ROX reporter with filters of 580±10 nm (excitation)/623±14 nm (emission). The measurements obtained at a compound concentration of 10 μM were analyzed using the Protein Thermal Shift Software program (version v1.4, Thermo Fisher Scientific), and the ΔTm (° C.) values, which indicate the binding affinity of the compound to the KRAS G12D mutant protein, were calculated. The DSF measurement results for the compounds according to one embodiment of the present application with respect to the KRAS G12D mutant protein are shown in Table 2.

[2] = biological target: T2, GppNHp-KRAS G12D mutant protein (Homo sapiens, UniProt P01116, G12D); assay: Differential scanning fluorimetry (DSF) binding affinity to GppNHp-KRAS G12D mutant protein; settings: DSF thermal shift, 10 μM compound, 4 μg KRAS protein, 50 mM HEPES (pH 7.5)
T2 construct: purchased Daegu Gyeongbuk Medical Innovation Foundation (DGMIF), made to order
Protocol: as §1

SMILES | GDP-KRAS G12D (ΔTmD, ° C.) [1] | GppNHp-KRAS G12D (ΔTmD, ° C.) [2]
CCc1c(F)ccc2cc(O)cc(-c3cc4nc(OC[C@@]56CCCN5C[C@H](F)C6)nc(NCC5(N(C)C)CCC5)c4n4ccnc34)c12 [Example 4, 4-(1-(((1-(dimethylamino)cyclobutyl)methyl)amino)-3-(((2R,7aS)-2-fluorotetrahydro-1H-pyrrolizin-7a(5H)-yl)methoxy)imidazo[1′,2′:1,6]pyrido[3,2-d]pyrimidin-6-yl)-5-ethyl-6-fluoronaphthalen-2-ol] | 1.90 °C | 0.57 °C
Nc1c(F)c(F)c(F)c(-c2cc3nc(OC[C@@]45CCCN4C[C@H](F)C5)nc(N4C[C@H]5CC[C@@H](C4)N5)c3n3ccnc23)c1F [Example 13, 3-(1-((1R,5S)-3,8-diazabicyclo[3.2.1]octan-3-yl)-3-(((2R,7aS)-2-fluorotetrahydro-1H-pyrrolizin-7a(51H)-yl)methoxy)imidazo[1′,2′:1,6]pyrido[3,2-d]pyrimidin-6-yl)-2,4,5,6-tetrafluoroaniline] | 0.28 °C | −0.61 °C
Nc1nc2c(-c3cc4nc(OC[C@@]56CCCN5C[C@H](F)C6)nc(N5[C@@H]6CC[C@H]5CNC6)c4n4ccnc34)ccc(F)c2s1 [Example 15, 4-(1-((1R,5S)-3,8-diazabicyclo[3.2.1]octan-8-yl)-3-(((2R,7aS)-2-fluorotetrahydro-1H-pyrrolizin-7a(5H)-yl)methoxy)imidazo[1′,2′:1,6]pyrido[3,2-d]pyrimidin-6-yl)-7-fluorobenzo[d]thiazol-2-amine] | −0.01 °C | 0.28 °C
Cc1cc2[nH]ncc2c(-c2cc3nc(OC[C@@]45CCCN4C[C@H](F)C5)nc(N4[C@@H]5CC[C@H]4CNC5)c3n3ccnc23)c1C(F)(F)F [Example 18, 1-((1 R,5S)-3,8-diazabicyclo[3.2.1]octan-8-yl)-3-(((2R,7aS)-2-fluorotetrahydro-1H-pyrrolizin-7a(5H)-yl)methoxy)-6-(6-methyl-5-(trifluoromethyl)-1H-indazol-4-yl)imidazo[1′,2′:1,6]pyrido[3,2-d]pyrimidine] | 2.35 °C | 1.01 °C
C#Cc1c(F)ccc2cc(O)cc(-c3cc4nc(OCC5(CN6CCC[C@H](F)C6)CC5)nc(N5[C@@H]6CC[C@H]5CNC6)c4n4ccnc34)c12 [Example 19, 4-(1-((1R,5S)-3,8-diazabicyclo[3.2.1]octan-8-yl)-3-((1-(((S)-3-fluoropiperidin-1-yl)methyl)cyclopropyl)methoxy)imidazo[1′,2′:1,6]pyrido[3,2-d]pyrimidin-6-yl)-5-ethynyl-6-fluoronaphthalen-2-ol] | 7.68 °C | 3.82 °C
Cc1cc(N)nc(-c2cc3nc(OC[C@@]45CCCN4C[C@H](F)C5)nc(N4[C@@H]5CC[C@H]4CNC5)c3n3ccnc23)c1C(F)(F)F [Example 20, 6-(1-((1R,5S)-3,8-diazabicyclo[3.2.1]octan-8-yl)-3-(((2R,7aS)-2-fluorotetrahydro-1H-pyrrolizin-7a(5H)-yl)methoxy)imidazo[1′,2′:1,6]pyrido[3,2-d]pyrimidin-6-yl)-4-methyl-5-(trifluoromethyl)pyridin-2-amine] | −0.17 °C | 0.27 °C
C#Cc1c(F)ccc2cccc(-c3cc4nc(OC[C@@]56CCCN5C/C(=C\F)C6)nc(N5[C@@H]6CC[C@H]5CNC6)c4n4ccnc34)c12 [Example 22, 1-((1R,5S)-3,8-diazabicyclo[3.2.1]octan-8-yl)-6-(8-ethynyl-7-fluoronaphthalen-1-yl)-3-(((S,Z)-2-(fluoromethylene)tetrahydro-1H-pyrrolizin-7a(5H)-yl)methoxy)imidazo[1′,2′:1,6]pyrido[3,2-d]pyrimidine] | 4.28 °C | 1.02 °C
C#Cc1c(F)ccc2cc(N)cc(-c3cc4nc(OC[C@@]56CCCN5C[C@H](F)C6)nc(N5C[C@H]6CC[C@@H](C5)N6)c4n4ccnc34)c12 [Example 24, 4-(1-((1R,5S)-3,8-diazabicyclo[3.2.1]octan-3-yl)-3-(((2R,7aS)-2-fluorotetrahydro-1H-pyrrolizin-7a(5H)-yl)methoxy)imidazo[1′,2′:1,6]pyrido[3,2-d]pyrimidin-6-yl)-5-ethynyl-6-fluoronaphthalen-2-amine] | 5.48 °C | 2.07 °C
Nc1nc2c(-c3cc4nc(OC[C@@]56CCCN5C[C@H](F)C6)nc(N5C[C@H]6CC[C@@H](C5)N6)c4n4ccnc34)ccc(F)c2s1 [Example 25, 4-(1-((1R,5S)-3,8-diazabicyclo[3.2.1]octan-3-yl)-3-(((2R,7aS)-2-fluorotetrahydro-1H-pyrrolizin-7a(5H)-yl)methoxy)imidazo[1′,2′:1,6]pyrido[3,2-d]pyrimidin-6-yl)-7-fluorobenzo[d]thiazol-2-amine] | 0.27 °C | −0.17 °C
Cc1cc2[nH]ncc2c(-c2cc3nc(OC[C@@]45CCCN4C[C@H](F)C5)nc(N4C[C@H]5CC[C@@H](C4)N5)c3n3ccnc23)c1C(F)(F)F [Example 26, 1-((1 R,5S)-3,8-diazabicyclo[3.2.1]octan-3-yl)-3-(((2R,7aS)-2-fluorotetrahydro-1H-pyrrolizin-7a(5H)-yl)methoxy)-6-(6-methyl-5-(trifluoromethyl)-1H-indazol-4-yl)imidazo[1′,2′:1,6]pyrido[3,2-d]pyrimidine] | 4.12 °C | 1.01 °C
C#Cc1c(F)ccc2cccc(-c3cc4nc(OC[C@@]56CCCN5C/C(=C\F)C6)nc(N5C[C@H]6CC[C@@H](C5)N6)c4n4ccnc34)c12 [Example 27, 1-((1 R,5S)-3,8-diazabicyclo[3.2.1]octan-3-yl)-6-(8-ethynyl-7-fluoronaphthalen-1-yl)-3-(((S,Z)-2-(fluoromethylene)tetrahydro-1H-pyrrolizin-7a(5H)-yl)methoxy)imidazo[1′,2′:1,6]pyrido[3,2-d]pyrimidine] | 4.27 °C | 0.71 °C
C#Cc1c(F)ccc2cccc(-c3cc4nc(OC[C@@]56CCCN5C[C@H](F)C6)nc(N5C[C@H]6CC[C@@H](C5)N6)c4n4ccnc34)c12 [Example 28, 1-((1R,5S)-3,8-diazabicyclo[3.2.1]octan-3-yl)-6-(8-ethynyl-7-fluoronaphthalen-1-yl)-3-(((2R,7aS)-2-fluorotetrahydro-1H-pyrrolizin-7a(5H)-yl)methoxy)imidazo[1′,2′:1,6]pyrido[3,2-d]pyrimidine] | 3.53 °C | 0.27 °C
C#Cc1c(F)ccc2cc(O)cc(-c3cc4nc(OCC5(CN6CC[C@@H](F)C6)CC5)nc(N5C[C@H]6CC[C@@H](C5)N6)c4n4ccnc34)c12 [Example 30, 4-(1-((1R,5S)-3,8-diazabicyclo[3.2.1]octan-3-yl)-3-((1-(((R)-3-fluoropyrrolidin-1-yl)methyl)cyclopropyl)methoxy)imidazo[1′,2′:1,6]pyrido[3,2-d]pyrimidin-6-yl)-5-ethynyl-6-fluoronaphthalen-2-ol] | 8.12 °C | 2.81 °C
